What all share (format): cell-based, chicken
The subject of assay [1] is VJ region of antibody light chain gene in DT40 cell line (3H12). The assay can be described thus: MNase sensitivity (indirect end labeling, Southern blot) of antibody light chain gene chromatin after TSA treatment. Particulars: 3H12 cells incubated 8 hours with TSA 0.625, 1.25, 2.5 ng/ml; MNase 0.04-1 U. On the procedure: Whether an alteration of the chromatin structure of the antibody light chain gene has actually been produced by TSA was analyzed using indirect end labeling with micrococcal nuclease (MNase) sensitivity as an indicator. Among chicken antibody alleles, one is VJ rearranged and the other one is not rearranged, but it is known that actually functional in antibody production is VJ rearranged one. However, since both sequences are almost identical, it is difficult to analyze VJ rearranged allele of wild type DT40 cells by simple application of indirect end labeling method. In order to solve this problem, on the side for which VJ recombination has not occurred, a mutant of which sequences in the vicinity of the region to be used as a Southern hybridization probe is deleted is generated, and an analysis of MNase sensitivity using this mutant was performed. […]
The nuclear pellet was resuspended in 10 ml RSB (10 mM Tris-HCl (pH7.5), 10 mM NaCl, 1.5 mM MgCl2, 0.5 mM DTI. 1 mM PMSF). […] The DNA concentration of this nuclear suspension was measured by Hoechst 33258 binding, and suspension corresponding to 100 μg was made into […] with RSB. […]

Another assay has as its system DT40 cells. Kind of assay: Sequence analysis of antibody light chain gene variable region (somatic homologous recombination). On the procedure:
DT40 cells were incubated at 39.5 degrees C. in a CO2 constant temperature oven in 5% CO2. IMDM medium (Invitrogen) was utilized as the medium, with 10% FBS, 1% chicken serum, 100 units/ml penicillin, 100 μg/ml streptomycin, and 55 μM 2-mercaptoethanol added. Additionally, for trichostatin A (Wako Pure Chemical Industries), this was dissolved to 5 mg/ml in methanol for stock, and this was used by diluting in an appropriate medium until the final concentration was 1.25 ng/ml.
(§1) At this time, a medium with 1.25 ng/ml trichostatin A added, and a medium with this not added, were prepared. This was incubated until single colonies appeared, and 5 clones (For No TSA, 6 clones) were transferred to a 6 well plate with 2 ml of fresh medium inside. At this time, incubation was continued by maintaining the original TSA concentration, and maintaining the cell concentration at 10^5-10^6 cells/ml.
With the abovementioned method, live cells of DT40 that were incubated for 3 weeks were recovered by fluorescence-activated cell sorter. With an EPICS ELITE ESP, 100 000 live cells were collected in a 1.5 ml tube. […]
PCR (Perkin Elmer 9600) was utilized for the amplification of the antibody light chain gene variable region. […] Plasmids were extracted, and the sequence was analyzed by an ABI PRI SM 377 DNA Sequencer (Perkin Elmer).

The test system of another assay is IgM(-) DT40 cells. The assay can be described thus: IgM expression by FACS (appearance frequency of IgM(+) cells). Particulars: 1.25 ng/ml trichostatin A, measured every other week by FACS. On the procedure: as §1
Culture fluid containing approximately 10^6 IgM(−) cells on which trichostatin A treatment was done by the method described in Embodiment 2 was put in 1.5 ml tubes, said cells were recovered by centrifuging (1000 g, 5 minutes), and suspended in 200 μl of staining buffer (PBS, 0.3% BSA). The cells were recovered by centrifuging again, then suspended in 200 μl of FITC-labeled anti chicken IgM antibody (BETHYL) diluted to 1/250 fold with a staining buffer, and reacted for 1 hour on ice. The cells were recovered by centrifuging, then the cells were washed by suspending them again in 200 μl of staining buffer, and centrifuging this. After repeating this washing step one more time, the cells were suspended in 100 μl of staining buffer containing 5 μg/ml of propidium iodide (Nakarai). The fraction of cells expressing IgM was calculated by measuring 10 000 cells with an EPICS ELITE ESP (Beckman Coulter). At this time, cells stained by propidium iodide were gated out as dead cells.
(A flow cytometer gives signals particle by particle.)

Turning to `CC(/C=C/C(=O)NO)=C\[C@@H](C)C(=O)c1ccc(N(C)C)cc1` [trichostatin A], in assay [1], the “accessibility of MNase to the VJ regions” value is on record as “increased” and the “chromatin structure of the VJ regions” value is listed as “relaxed”. Also, the “diversity of antibody light chain genes” value in the assay with DT40 cells (DT40 cells cultured 3 weeks with 1.25 ng/ml trichostatin A vs absence) was “rose markedly”. Besides, the “number of sequence types of antibody light chain gene variable region among 42 samples” value with DT40 cells (DT40 cells cultured 3 weeks with 1.25 ng/ml trichostatin A, 42 samples) was 16 types. In addition, the “fraction of cells expressing IgM (IgM(+) cells)” value with IgM(-) DT40 cells was “increased time dependently”.

These data come from US8187884B2, “Method of enhancing homologous recombination of somatic cells and method of constructing specific antibody” (Riken, priority 2002, dated 2012).
